A word on the IC50: it is the midpoint of a concentration-inhibition curve.

The values below come from BindingDB's records for doi:10.1016/j.bmcl.2013.02.084 (Astrazeneca, 2013).

Experiment [1] deals with 2-acylglycerol O-acyltransferase 2 (human) (UniProt Q3SYC2). Nature of the experiment: Inhibition of human recombinant MGAT2 expressed in insect cell membrane using 2-oleoyl-sn-glycerol and oleoyl coenzyme A as substrate after 40 mins by Ellmans assay based rapidfire LCMS analysis.
In experiment [2] the target is 2-acylglycerol O-acyltransferase 1 (human) (UniProt Q96PD6). Nature of the experiment: Inhibition of human recombinant MGAT1 expressed in insect cell membrane using 2-oleyl-sn-glycerol and [14C]-oleyl-coenzyme A as substrate after 10 to 15 mins by liquid scintillation counting analysis.
Chain of 2-acylglycerol O-acyltransferase 1 (human) (Q96PD6 whole entry, looked up): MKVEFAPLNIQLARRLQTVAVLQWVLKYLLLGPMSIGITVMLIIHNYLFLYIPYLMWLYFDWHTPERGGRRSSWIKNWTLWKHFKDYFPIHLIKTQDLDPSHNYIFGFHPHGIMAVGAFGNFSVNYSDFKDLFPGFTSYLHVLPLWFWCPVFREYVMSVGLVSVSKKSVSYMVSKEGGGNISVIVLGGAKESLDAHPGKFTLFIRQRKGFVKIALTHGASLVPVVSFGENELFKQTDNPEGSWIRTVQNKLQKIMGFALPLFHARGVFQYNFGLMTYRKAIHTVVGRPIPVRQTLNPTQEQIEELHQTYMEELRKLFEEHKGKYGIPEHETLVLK
Experiment [3] addresses 2-acylglycerol O-acyltransferase 2 (mouse). The experiment can be described thus: Inhibition of mouse recombinant MGAT2 expressed in insect cell membrane using 2-oleoyl-sn-glycerol and oleoyl coenzyme A as substrate after 40 mins by Ellmans assay based rapidfire LCMS analysis. (In general: In Ellman's method for cholinesterases, released thiocholine reacts with DTNB.)
Experiment [4] can be described thus: Inhibition of human recombinant MGAT3 expressed in insect cell membrane using 2-oleyl-sn-glycerol and [14C]-oleyl-coenzyme A as substrate after 10 to 15 mins by liquid scintillation counting analysis.

Chain of 2-acylglycerol O-acyltransferase 2 (human) (Q3SYC2 whole entry, looked up): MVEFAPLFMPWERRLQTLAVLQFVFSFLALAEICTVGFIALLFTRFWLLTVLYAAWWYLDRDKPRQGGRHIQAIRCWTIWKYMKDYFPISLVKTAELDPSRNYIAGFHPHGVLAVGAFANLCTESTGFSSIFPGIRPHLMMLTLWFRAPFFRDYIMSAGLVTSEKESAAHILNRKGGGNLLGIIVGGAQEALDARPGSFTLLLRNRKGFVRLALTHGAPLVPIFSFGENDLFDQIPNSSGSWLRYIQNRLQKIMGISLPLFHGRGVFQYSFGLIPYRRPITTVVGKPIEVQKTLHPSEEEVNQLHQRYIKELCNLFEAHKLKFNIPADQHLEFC

Turning to `CC1(C)COc2ccc(S(=O)(=O)Nc3ccc(Cl)cc3)cc2C(=O)N1`, the IC50 in experiment [1] was determined as 2 µM.

As for `CCC1(C)NC(=O)c2cc(S(=O)(=O)Nc3ccccc3)ccc2NC1=O` (stereo unspecified), the IC50 in experiment [2] was found to be 0.501 µM.

Turning to `CCC1(CC)CNc2ccc(S(=O)(=O)Nc3ccc(F)cc3F)cc2C(=O)N1`, the IC50 in experiment [1] was determined as 0.0016 µM.

As to `CCC1NC(=O)c2cc(S(=O)(=O)Nc3ccccc3)ccc2NC1=O` (stereo unspecified), the IC50 in experiment [1] stood at 5.01 µM.

`CCC1(C)NC(=O)c2cc(NS(=O)(=O)c3ccccc3)ccc2NC1=O` (stereo unspecified): the IC50 in experiment [1] is > 100 µM.

As for `CCC1(CC)CNc2ccc(S(=O)(=O)Nc3ccc(F)cc3F)cc2CN1`, in experiment [1], the IC50 came to 0.316 µM.

With `CCC1(CC)NC(=O)c2cc(S(=O)(=O)Nc3ccc(F)cc3F)ccc2NC1=O`, in experiment [1], the IC50 came to 0.0032 µM.

Turning to `CCC1(C)NC(=O)c2cc(S(=O)(=O)Nc3ccc(OC)cc3)ccc2NC1=O` (stereo unspecified), the IC50 in experiment [2] was 0.032 µM.

As for `CCC1(C)NC(=O)c2cc(S(=O)(=O)Nc3ccc(Cl)cc3)ccc2N(C)C1=O` (stereo unspecified), the half-inhibitory concentration (IC50) in experiment [2] amounted to 0.398 µM.

As to `O=C1NC2(CCCC2)C(=O)Nc2ccc(S(=O)(=O)Nc3ccc(Cl)cc3)cc21`, the half-maximal inhibitory concentration (IC50) in experiment [1] came to 0.05 µM.

Take `CCC1(C)C(=O)Nc2ccc(S(=O)(=O)Nc3ccc(F)cc3F)cc2C(=O)N1C` (stereo unspecified): the IC50 in experiment [3] was determined as 0.631 µM; in experiment [1] it was 7.94 µM.

Regarding `CCC1(C)NC(=O)c2cc(S(=O)(=O)NCc3ccccc3)ccc2NC1=O` (stereo unspecified), the IC50 in experiment [1] is 7.94 µM.

Take `CCC1(C)NC(=O)c2cc(S(=O)(=O)Nc3ccccc3Cl)ccc2NC1=O` (stereo unspecified): the IC50 is 0.063 µM in experiment [1] and 0.158 µM in experiment [2].

As to `CCC1(CC)NCc2cc(S(=O)(=O)Nc3ccc(F)cc3F)ccc2NC1=O`, the IC50 in experiment [1] is 0.251 µM.

Turning to `O=C(Nc1ccc(Cl)cc1)c1ccc2c(c1)C(=O)NC1(CCC1)C(=O)N2`, the IC50 in experiment [1] is > 100 µM.

`CCC1(C)NC(=O)c2cc(S(=O)(=O)N(C)c3ccccc3)ccc2NC1=O` (stereo unspecified): in experiment [1], the IC50 was > 100 µM.

With `CCC1(C)NC(=O)c2cc(S(=O)(=O)Nc3cccc(Cl)c3)ccc2NC1=O` (stereo unspecified), in experiment [1], the IC50 worked out at 2 µM.

Turning to `CCC1(C)NC(=O)c2cc(S(=O)(=O)Nc3ccc(Cl)cc3)ccc2NC1=O` (stereo unspecified), the half-maximal inhibitory concentration (IC50) in experiment [3] was 0.004 µM; in experiment [1], 0.025 µM; in experiment [4], 0.398 µM; in experiment [2] it was 0.05 µM.

On to `CCC1(C)NC(=O)c2cc(S(=O)(=O)NC3CCCCC3)ccc2NC1=O` (stereo unspecified), for which the IC50 in experiment [1] is 5.01 µM.

For the compound `O=C1NC2(CCC2)C(=O)Nc2ccc(S(=O)(=O)Nc3ccc(Cl)cc3)cc21`, the IC50 in experiment [1] came to 0.079 µM.

For the compound `CCCC1(C)NC(=O)c2cc(S(=O)(=O)Nc3ccc(F)cc3F)ccc2NC1=O` (stereo unspecified), the IC50 in experiment [1] turned out to be 0.05 µM.
